In patent US20120046273A1, “COMPOUNDS AND COMPOSITIONS FOR COGNITION-ENHANCEMENT, METHODS OF MAKING, AND METHODS OF TREATING” (MITHRIDION, INC., priority 2009, published 2012):

What was measured:
[1] = biological target: T1, human muscarinic M3 receptors (Homo sapiens, UniProt P20309); experiment: Inositol phosphate production in huM3/A9L cells (IPOne TR-FRET); format: cell-based; conditions: for huM3/A9L Smax: percentage of maximal stimulation by carbachol; for huM3/A9L ED50 relative to CCh: potency relative to carbachol
T1 construct: expressed in transfected cells; host or cells: A9L cells (gift from Professor W Messer)
Procedure: (§1) Muscarinic M1 and M3 agonist activity was evaluated by measuring the stimulation of inositol phosphate (IP) production in the presence of lithium chloride from A9L cells transfected with expression plasmids containing human muscarinic M1 and M3 receptors, respectively. The cell lines were a gift from Professor W Messer, and the methods were as described in Tejada F R et al. J. Med. Chem. 2006; 49: 7518-31 except that the assay was scaled down to run in 384 well plates, and IP was measured in the cell lysates using the non-isotopic IPOne TR-FRET assay (CIS-BIO, Inc).
(§2) Cells were grown to 90% confluence in 384 well hi-base plates (Greiner Bio-One), compounds were added at suitable concentrations in growth medium containing 10 mM LiCL, buffered with an extra 10 mM HEPES (pH7.4), and incubated for 60 minutes at 37° C. Cells were lysed and assayed for IP following the manufacturer's instructions.
(§3) The value for a full agonist is 100%, while partial agonists give values below 100%.

[2] = biological target: T2, human muscarinic M1 receptors (Homo sapiens, UniProt P11229); experiment: Inositol phosphate production in huM1/A9L cells (IPOne TR-FRET); format: cell-based; conditions: for huM1/A9L Smax: percentage of maximal stimulation by carbachol; for huM1/A9L ED50 relative to CCh: potency relative to carbachol
T2 construct: expressed in transfected cells; host or cells: A9L cells (gift from Professor W Messer)
T2 sequence (P11229 1-460): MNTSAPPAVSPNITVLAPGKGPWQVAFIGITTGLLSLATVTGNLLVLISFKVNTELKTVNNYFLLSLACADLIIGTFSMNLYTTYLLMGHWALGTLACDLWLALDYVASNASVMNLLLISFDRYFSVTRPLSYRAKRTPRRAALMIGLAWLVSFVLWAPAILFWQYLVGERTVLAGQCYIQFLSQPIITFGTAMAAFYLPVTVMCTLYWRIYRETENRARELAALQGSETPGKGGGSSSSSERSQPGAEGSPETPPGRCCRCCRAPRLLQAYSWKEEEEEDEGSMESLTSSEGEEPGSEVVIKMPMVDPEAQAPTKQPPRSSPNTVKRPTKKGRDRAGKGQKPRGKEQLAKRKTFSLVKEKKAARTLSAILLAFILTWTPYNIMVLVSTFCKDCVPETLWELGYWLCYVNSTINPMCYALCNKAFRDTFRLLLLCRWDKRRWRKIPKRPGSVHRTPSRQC
Procedure: as §1, §2, §3

[3] = tested on: pooled male human liver microsomes; experiment: Metabolism by human liver microsomes; format: in vitro ADME; conditions: 6 hours incubation
Procedure: (§4) Compounds were incubated with pooled male human liver microsomes (BD Biosciences, #452172) and an NADP-regenerating system in a phosphate buffer (pH 7.4) for a total of 6 hours. Aliquots were removed every 2 hours, and 1% formic acid was added to halt the reaction. Samples were centrifuged, filtered through 0.2 micron spinfilter and the amount of each compound in the supernatants was quantitated using LC/MS/MS.

[4] = tested on: pooled male Sprague-Dawley rat liver microsomes; experiment: Metabolism by rat liver microsomes; format: in vitro ADME; conditions: 6 hours incubation
Procedure: as §4, with “Sprague-Dawley rat” for “human”, “#452501)” for “#452172)”

T1 sequence (P20309 whole entry): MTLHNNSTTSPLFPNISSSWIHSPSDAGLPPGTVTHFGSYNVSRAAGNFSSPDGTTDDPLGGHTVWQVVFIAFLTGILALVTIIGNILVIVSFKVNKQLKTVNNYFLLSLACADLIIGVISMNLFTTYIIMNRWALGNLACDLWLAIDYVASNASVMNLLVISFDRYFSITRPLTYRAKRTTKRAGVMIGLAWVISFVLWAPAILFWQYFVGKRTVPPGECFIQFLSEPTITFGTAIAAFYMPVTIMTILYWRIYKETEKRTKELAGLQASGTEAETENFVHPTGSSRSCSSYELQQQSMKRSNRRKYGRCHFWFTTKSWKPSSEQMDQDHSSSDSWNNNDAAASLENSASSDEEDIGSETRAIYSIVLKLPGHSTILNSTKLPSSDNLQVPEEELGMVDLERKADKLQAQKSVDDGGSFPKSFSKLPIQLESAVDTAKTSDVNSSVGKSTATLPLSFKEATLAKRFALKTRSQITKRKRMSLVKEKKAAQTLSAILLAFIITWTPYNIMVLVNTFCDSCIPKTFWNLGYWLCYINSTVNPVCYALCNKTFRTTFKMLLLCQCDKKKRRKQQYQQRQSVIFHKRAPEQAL

Row | SMILES | huM3/A9L Smax [1] | huM3/A9L ED50 relative to CCh [1] | huM1/A9L Smax [2] | huM1/A9L ED50 relative to CCh [2] | extent of metabolism in human liver microsomes [3] | extent of metabolism in rat liver microsomes [4]
1 | Cc1noc([C@H]2CNC[C@@H](C)C2)n1 [Compound 104] | 20% | inactive | 9% | inactive |  | 
2 | Cc1noc([C@H]2CCCN[C@@H]2C)n1 [Compound 109] | 20% | inactive | 3% | inactive |  | 
3 | Cc1noc(C2CCCNC2)n1 (single isomer, unassigned) [Compound 84, 3-methyl-5-(piperidin-3-yl)-1,2,4-oxadiazole] | 66% | +/− (potency 0.5-2x CCh) | 129% | + (potency 2-10x CCh) | metabolized significantly less in human liver microsomes than in rat liver microsomes | far more stable than compounds 126 and 127
4 | Cc1noc([C@@H]2CNC[C@@H](C)C2)n1 [Compound 105] | 14% | inactive | 18% | inactive |  | 
5 | CCc1noc(C2CCCNC2)n1 (centres unmarked) [Compound 128, 3-ethyl-5-(piperidin-3-yl)-1,2,4-oxadiazole, reference compound] | <14% | inactive | 15% | inactive |  | 
6 | [2H]C([2H])([2H])c1noc(C2CCCNC2)n1 (single isomer, unassigned) [Compound 90, 3-(methyl-d3)-5-(piperidin-3-yl)-1,2,4-oxadiazole] | 76% | −− (potency <0.1x CCh) | 81% | +/− (potency 0.5-2x CCh) | metabolized significantly less in human liver microsomes than in rat liver microsomes | far more stable than compounds 126 and 127
7 | Cc1noc([C@H]2CC[C@H](C)NC2)n1 [Compound 103] | 34% | inactive | 15% | inactive |  | 
8 | Cc1noc(C2CCNC2)n1 (centres unmarked) [Compound 115, 3-methyl-5-(pyrrolidin-3-yl)-1,2,4-oxadiazole] |  | − (potency <0.5-0.1x CCh) |  | + (potency 2-10x CCh) |  | 
9 | Cc1noc(C2CCCN(C)C2)n1 (centres unmarked) [Compound 86, 3-Methyl-5-(1-methylpiperidin-3-yl)-1,2,4-oxadiazole] | 20% | inactive | 20% | inactive |  | 
10 | Cc1noc(C2CCC(C)NC2)n1 (centres unmarked) [Compound 102, 3-Methyl-5-(6-methylpiperidin-3-yl)-1,2,4-oxadiazole] | 18% | inactive | 14% | inactive |  | 
11 | Cc1noc([C@@H]2CCCN[C@@H]2C)n1 [Compound 108] | 32% | inactive | 41% | −− (potency <0.1x CCh) |  | 
12 | Nc1noc(C2CCCNC2)n1 (centres unmarked) [Compound 111, 3-Amino-5-(piperidin-3-yl)-1,2,4-oxadiazole] | 20% | +/− (potency 0.5-2x CCh) | 97% | + (potency 2-10x CCh) |  | 
